Patent US10857105B2, “Compounds and compositions for intracellular delivery of therapeutic agents” (ModernaTX, Inc., priority 2017, dated 2020)
Entries after “also recorded” stand apart in the source; their conditions may differ.

Key:
hEPO mRNA = test: hEPO expression and cytokine induction after intravenous administration to mice; format: in vivo; details: for hEPO expression, 3 h / Cytokine expression, IL-6 (6 h) / Cytokine expression, IP-10 (6 h) / hEPO expression, 6 h / hEPO expression, 24 h: intravenous 0.5 mpk
Protocol: FIG. 17 is a graph showing the hEPO mRNA expression in CD1-mice measured 3 h (left block), 6 h (middle block) and 24 h (right block) after intravenous administration of various nanoparticle compositions. Numbers 1-13 refer to compositions containing an mRNA expressing hEPO and the following: 1: Compound 147, 2: Compound 184, 3: Compound 232; 4: Compound 189; 5: Compound 200; 6: Compound 233; 7: Compound 234; 8: Compound 235; 9: Compound 237; 10: Compound 239; 11: Compound 243; 12: MC3; 13: PBS. […]
Sample formulations of nanoparticle compositions including different lipids are generally first evaluated according to Luc expression in vivo. The activity of several such compositions was further evaluated using an mRNA encoding hEPO. Nanoparticle compositions including Compounds 6, 18, 25, 30, 108-112, 60, and 122, or MC3 were prepared according to Example 2.
The expression of hEPO and cytokine induction in mice intravenously administered a nanoparticle composition at a dose of 0.5 mpk were measured at 3, 6, and 24 hours. […] The expression of hEPO in mice intramuscularly administered a nanoparticle composition from Table 1B at a dose of 0.01 mpk were measured at 3, 6, and 24 hours. […] (see
Table 12 compares the nanoparticle compositions including compounds according to Formula (I), (IA), (IB), (II), (IIa), (IIb), (IIc), (IId), (IIe), (IIf), (IIg), or (III) to the compositions including MC3 on the basis of expression and flux levels. […] Thus, these lipids may be useful in nanoparticle composition therapeutics.

mouse tissues = test: Lipid clearance from mouse tissues after weekly dosing 0.05 mg/kg mRNA on day 1, 8 and 15; format: in vivo
Protocol: Repeat dosing of mRNA in an MC3-based LNP for a therapeutic indication would be expected to lead to accumulation of MC3 in tissues, based on the measured half-life. Therefore it was investigated whether the favorable single dose pharmacokinetics of compound 18 were maintained with weekly dosing. Clearance of MC3 and compound 18 from multiple mouse tissues was measured after dosing 0.05 mg/kg mRNA on day 1, 8 and 15 (FIG. 30A). Following dosing with MC3 LNPs, lipid was detected in liver, spleen, plasma, kidney, heart and lung; with liver and spleen containing the largest concentrations (FIG. 30A, for full panel of tissues see FIG. 35A). […] Compound 18 was also detected in plasma, lung, and kidney, but not in heart (FIG. 35A).

NHP tissues = test: Lipid tissue accumulation in NHP after a single dose; format: in vivo, cynomolgus monkey
Protocol: NHP studies: Nonhuman primate studies were conducted using naïve cynomolgus monkeys (cynos), 2-4 years old, weighing 2-6 kg. No treatment randomization or blinding methods were used for any of the animal studies. Sample sizes were determined by the resource equation method. For injection, mRNA-LNPs in phosphate buffered saline (PBS) were administered by 60-minute intravenous infusion using a temporary indwelling catheter inserted in a peripheral vein.
NHP more closely approximates clinical responses for LNP-based systems than rodent (DeRosa, F., Guild, B., Karve, S., Smith, L., Love, K., Dorkin, J R., et. al. Therapeutic efficacy in a hemophilia B model using a biosynthetic mRNA liver depot system. Gene Ther. 2016, 23, 699-707, the contents of which are incorporated herein by reference in their entireties). In order to translate the findings from rodent to the non-human primate (NHP), the lipids were tested in NHP. For this purpose, it was evaluated whether the improved expression observed in mouse and rat with LNPs containing compound 18 could also be achieved in NHP after a single dose. […] A dose of 0.01 mg/kg of hEPO-encoding mRNA was delivered via a 60 minute intravenous infusion. […] A separate study evaluated the lipid tissue accumulation in NHP after a single dose.

CD-1 mice = test: Luciferase expression after intravenous delivery of luciferase mRNA LNPs (bioluminescent imaging); format: in vivo; details: intravenous 0.5 mg/kg mRNA dose
Protocol: Whole body and ex vivo organ bioluminescent imaging of mice: CD-1 mice were injected 15 minutes prior to the imaging timepoint intraperitoneally (IP) with 200 μL Xenolight D-luciferin K+ salt, diluted in PBS just prior to use to a concentration of 15 mg/mL. Ex vivo imaging of organs was completed, within 25 minutes of luciferin administration. All images were quantified by region of interest for total flux.
[…] […] (See Semple, S.C. et al., Nature Biotech. 2010. 28, 172-176, Jayaraman, M., et al. Angew. Chem. Int. Ed. 2012, 51, 8529-8533, the entire contents of each of which are incorporated by reference herein in their entireties). To evaluate the efficiency of the new amino lipids, LNPs using the novel compounds were tested in vivo in mice using luciferase mRNA as a reporter. An MC3 LNP was included as a control in each experiment, enabling the comparison of LNPs from experiment to experiment. Measured luciferase activity also enabled the determination of protein bio-distribution.

| SMILES | hEPO expression, 3 h (hEPO mRNA; mice) [pg/mL] | Cytokine expression, IL-6 (6 h) (hEPO mRNA; mice, 6 h) [pg/mL] | Cytokine expression, IP-10 (6 h) (hEPO mRNA; mice, 6 h) [pg/mL] | hEPO expression, 6 h (hEPO mRNA; mice, 6 h) [pg/mL] | hEPO expression, 24 h (hEPO mRNA; mice) [pg/mL] | hEPO concentrations compared with MC3 formulations (hEPO mRNA; mice, intravenous, 0.5 mpk, 3, 6 and 24 hours) | lipid levels in tissues on weekly dosing (mouse tissues) | lipid residue in tissues at 12 hours post dose (NHP tissues) | luciferase activity/expression compared to MC3 LNP control (words) (CD-1 mice) | luciferase activity/expression compared to MC3 LNP control (words) (CD-1 mice; 0.5 mg/kg) | Average hEPO concentration (pg/ml, 6 h) (hEPO mRNA; 6 h) [pg/mL] | Fold increase in hEPO concentration relative to MC3 (hEPO mRNA; Table 12, 6 h) |
| --- | --- | --- | --- | --- | --- | --- | --- | --- | --- | --- | --- | --- |
| CCCCCCCCCOC(=O)CCCCCCCN(CCO)CCCCCCCC(=O)OC(CCCCCCCC)CCCCCCCC [Compound 18, Heptadecan-9-yl 8-((2-hydroxyethyl)(8-(nonyloxy)-8-oxooctyl)amino)octanoate] | 3e+06 | 10.16 | 299.93 | 3.38e+06 | 1.8e+06 | higher hEPO concentrations than MC3 formulations at each time point | significantly lower levels than MC3 | significantly lower levels | – | – | – | – |
| CCCCCCCCCCCOC(=O)CCCCCN(CCO)CCCCCCCC(=O)OC(CCCCCCCC)CCCCCCCC [Compound 25, Heptadecan-9-yl 8-((2-hydroxyethyl)(6-oxo-6-(undecyloxy)hexyl)amino)octanoate] | – | – | – | – | – | – | – | – | higher expression compared to MC3 | – | – | – |
| CCCCCCCCCOC(=O)CCCN(CCO)CCCCCCCC(=O)OC(CCCCCCCC)CCCCCCCC [Compound 26, Heptadecan-9-yl 8-((2-hydroxyethyl)(4-(nonyloxy)-4-oxobutyl)amino) octanoate] | – | – | – | – | – | – | – | – | – | higher expression compared to MC3; also recorded: highest luciferase activity of the series | – | – |
| CCCCCC=CCC=CCCCCCCCCC(CCCCCCCCC=CCC=CCCCCC)OC(=O)CCCN(C)C (stereo not shown) [MC3, heptatriaconta-6,9,28,31-tetraen-19-yl 4-(dimethylamino)butanoate, reference compound] | 1.57e+06 | 19.85 | 117.94 | 1.83e+06 | 810000 | – | Accumulation of MC3 was observed after each dose | found in multiple tissues | – | – | 1.83e+06 | 1 |
